Experiment: cn = amount concentration of the nth substance listed, in mol/dm3
Conditions: 101 kPa, Liquid, Advanced Conductivity Orion 162A

CCCC[N+](CCCC)(CCCC)CCCC.O=C([O-])C(F)(F)C(F)(F)C(F)(F)C(F)(F)C(F)(F)C(F)(F)C(F)(F)F [tetrabutylammonium perfluorooctanoate] + O
Conditions	electrical conductivity [S/m]
283.1 K, c1 = 0.000329	0.00105
283.1 K, c1 = 0.000649	0.0019
283.1 K, c1 = 0.000962	0.00271
283.1 K, c1 = 0.001266	0.00351
283.1 K, c1 = 0.001562	0.00431
283.1 K, c1 = 0.001852	0.00505
283.1 K, c1 = 0.002134	0.00579
283.1 K, c1 = 0.00241	0.00643
283.1 K, c1 = 0.002678	0.00707
283.1 K, c1 = 0.002941	0.00749
283.1 K, c1 = 0.003198	0.00762
283.1 K, c1 = 0.003448	0.0077
283.1 K, c1 = 0.003814	0.00782
283.1 K, c1 = 0.004167	0.00793
283.1 K, c1 = 0.004508	0.00803
283.1 K, c1 = 0.004839	0.00812
283.1 K, c1 = 0.005159	0.00821
283.1 K, c1 = 0.005469	0.00831
288.15 K, c1 = 0.000247	0.00099
288.15 K, c1 = 0.000488	0.00175
288.15 K, c1 = 0.000723	0.00249
288.15 K, c1 = 0.000952	0.0032
288.15 K, c1 = 0.001176	0.00389
288.15 K, c1 = 0.001395	0.00457
288.15 K, c1 = 0.001609	0.00521
288.15 K, c1 = 0.001818	0.00582
288.15 K, c1 = 0.00202	0.00641
288.15 K, c1 = 0.002222	0.00704
288.15 K, c1 = 0.002418	0.00756
288.15 K, c1 = 0.002609	0.00796
288.15 K, c1 = 0.002796	0.00811
288.15 K, c1 = 0.002979	0.00819
288.15 K, c1 = 0.003246	0.0083
288.15 K, c1 = 0.003505	0.00839
288.15 K, c1 = 0.003838	0.00852
288.15 K, c1 = 0.004158	0.00863
288.15 K, c1 = 0.004466	0.00873
288.15 K, c1 = 0.004906	0.00888
288.15 K, c1 = 0.005321	0.00902
293.15 K, c1 = 0.000263	0.00116
293.15 K, c1 = 0.000519	0.0021
293.15 K, c1 = 0.000769	0.00299
293.15 K, c1 = 0.001013	0.00386
293.15 K, c1 = 0.00125	0.00471
293.15 K, c1 = 0.001481	0.00552
293.15 K, c1 = 0.001707	0.00626
293.15 K, c1 = 0.001928	0.00699
293.15 K, c1 = 0.002143	0.0077
293.15 K, c1 = 0.002353	0.00829
293.15 K, c1 = 0.002558	0.0085
293.15 K, c1 = 0.002759	0.00862
293.15 K, c1 = 0.002954	0.00871
293.15 K, c1 = 0.00324	0.00884
293.15 K, c1 = 0.003516	0.00895
293.15 K, c1 = 0.003784	0.00907
293.15 K, c1 = 0.004042	0.0092
293.15 K, c1 = 0.004375	0.00931
293.15 K, c1 = 0.004694	0.00944
293.15 K, c1 = 0.005	0.00956
298.15 K, c1 = 0.000248	0.00124
298.15 K, c1 = 0.00049	0.00229
298.15 K, c1 = 0.000728	0.0033
298.15 K, c1 = 0.000962	0.0043
298.15 K, c1 = 0.00119	0.00528
298.15 K, c1 = 0.001415	0.00618
298.15 K, c1 = 0.001636	0.00703
298.15 K, c1 = 0.001852	0.00789
298.15 K, c1 = 0.002064	0.00869
298.15 K, c1 = 0.002273	0.00907
298.15 K, c1 = 0.002477	0.00916
298.15 K, c1 = 0.002728	0.00927
298.15 K, c1 = 0.003094	0.00944
298.15 K, c1 = 0.003448	0.00959
298.15 K, c1 = 0.003814	0.00976
298.15 K, c1 = 0.004167	0.00992
298.15 K, c1 = 0.004592	0.01011
298.15 K, c1 = 0.005	0.01028
303.15 K, c1 = 0.000263	0.00148
303.15 K, c1 = 0.000519	0.00267
303.15 K, c1 = 0.000769	0.00383
303.15 K, c1 = 0.001013	0.00497
303.15 K, c1 = 0.00125	0.0061
303.15 K, c1 = 0.001481	0.00717
303.15 K, c1 = 0.001707	0.00814
303.15 K, c1 = 0.001928	0.00909
303.15 K, c1 = 0.002143	0.00964
303.15 K, c1 = 0.002353	0.00979
303.15 K, c1 = 0.002558	0.00989
303.15 K, c1 = 0.002759	0.00998
303.15 K, c1 = 0.002954	0.01005
303.15 K, c1 = 0.00324	0.01016
303.15 K, c1 = 0.003516	0.01026
303.15 K, c1 = 0.003784	0.01035
303.15 K, c1 = 0.004042	0.01044
303.15 K, c1 = 0.004375	0.01055
303.15 K, c1 = 0.004694	0.01065
308.15 K, c1 = 0.000309	0.00189
308.15 K, c1 = 0.00061	0.0034
308.15 K, c1 = 0.000904	0.00484
308.15 K, c1 = 0.00119	0.00633
308.15 K, c1 = 0.00147	0.00774
308.15 K, c1 = 0.001744	0.00909
308.15 K, c1 = 0.002011	0.01001
308.15 K, c1 = 0.002273	0.01017
308.15 K, c1 = 0.002423	0.01022
308.15 K, c1 = 0.002578	0.01026
308.15 K, c1 = 0.002728	0.0103
308.15 K, c1 = 0.002876	0.01034

Reference: the NIST ThermoML archive (doi:10.1021/je900916e)
